Reference: patent US8841321B2, “Quinoline derivatives as antibacterial agents” (Janssen Pharmaceutica NV, priority 2005, dated 2014)
In brackets after ≈: the same amount, converted by molar mass.

Columns and labels:
Experiment in all cases: Microtitre plate assay, IC90 determination
Format in all cases: cell-based
[1] = tested on: STA 29213 (Staphylococcus aureus (ATCC29213)); settings: for IC90 (μg/ml) STA 29213: Staphylococcus aureus (ATCC29213); for IC90: Staphylococcus aureus, ATCC29213, Staphylococcus aureus (ATCC29213), read-out: IC90 (μg/ml) STA 29213
How it was run: (§1)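 Growth-inhibition endpoint: resazurin added 3 h after inoculation, plates incubated overnight, fluorescence at 530/590 nm after 24 h at 37 °C. Inocula of roughly 10–60 CFU per well in Mueller-Hinton medium; compounds titrated five-fold. IC90 reported as μg/ml.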

[2] = tested on: SPN 6305 (Streptococcus pneumoniae (ATCC6305)); settings: for IC90 (μg/ml) SPN 6305: Streptococcus pneumoniae (ATCC6305); for IC90: Streptococcus pneumoniae, ATCC6305, Streptococcus pneumoniae (ATCC6305), read-out: IC90 (μg/ml) SPN 6305
How it was run: as §1

[3] = tested on: EFA 29212 (Enterococcus faecalis (ATCC29212)); settings: for IC90 (μg/ml) EFA 29212: Enterococcus faecalis (ATCC29212); for IC90: Enterococcus faecalis, ATCC29212, Enterococcus faecalis (ATCC29212), read-out: IC90 (μg/ml) EFA 29212
[4] = tested on: PAE 27853 (Pseudomonas aeruginosa (ATCC27853)); settings: for IC90 (μg/ml) PAE 27853: Pseudomonas aeruginosa (ATCC27853); for IC90: Pseudomonas aeruginosa, ATCC27853, Pseudomonas aeruginosa (ATCC27853), read-out: IC90 (μg/ml) PAE 27853
[5] = tested on: SPY 8668 (Streptococcus pyogens (ATCC8668)); settings: for IC90 (μg/ml) SPY 8668: Streptococcus pyogens (ATCC8668); for IC90: Streptococcus, ATCC8668, Streptococcus pyogens (ATCC8668), read-out: IC90 (μg/ml) SPY 8668
[6] = tested on: STA RMETH (methicilline resistant Staphylococcus aureus (MRSA), a clinical isolate from the University of Antwerp); settings: for IC90: Staphylococcus aureus, MRSA, read-out: IC90 (μg/ml) STA RMETH

Compound	IC90 (μg/ml) STA 29213 [1] [µg/mL]	IC90 (μg/ml) SPN 6305 [2] [µg/mL]	IC90 (μg/ml) EFA 29212 [3] [µg/mL]	IC90 (μg/ml) PAE 27853 [4] [µg/mL]	IC90 (μg/ml) SPY 8668 [5] [µg/mL]	IC90 [2] [µg/mL]	IC90 [3] [µg/mL]	IC90 [4] [µg/mL]	IC90 [5] [µg/mL]	IC90 [1] [µg/mL]	IC90 (μg/ml) STA RMETH [6] [µg/mL]	IC90 [6] [µg/mL]
COc1nc2ccccc2cc1C(c1cccc(Br)c1)C(O)(CCCCN(C)C)c1ccc2ccccc2c1 (single isomer, unassigned) [Compound 159]	1.85 (≈ 3.17 µM)	0.41 (≈ 0.703 µM)	1.85 (≈ 3.17 µM)	1.85 (≈ 3.17 µM)	1.47 (≈ 2.52 µM)	–	–	–	–	–	–	–
CNCCCC(O)(c1ccc(F)cc1)C(c1ccccc1)c1cc2cc(Br)ccc2nc1OC (stereo not drawn) [Compound 69]	1.7 (≈ 3.25 µM)	–	–	–	6.59 (≈ 12.6 µM)	1.65 (≈ 3.15 µM)	9.3 (≈ 17.8 µM)	7.39 (≈ 14.1 µM)	–	–	–	–
COc1nc2ccc(Br)cc2cc1C(c1ccccc1)C(O)(CCCCN(C)C)CCCc1ccccc1 (single isomer, unassigned) [Compound 144]	9.12 (≈ 15.8 µM)	2.29 (≈ 3.98 µM)	1.82 (≈ 3.16 µM)	1.82 (≈ 3.16 µM)	1.82 (≈ 3.16 µM)	–	–	–	–	–	–	–
COc1ccc(C(c2cc3cc(Br)ccc3nc2OC)C(O)(CCCCN(C)C)c2ccc3ccccc3c2)cc1 (single isomer, unassigned) [Compound 158]	0.4 (≈ 0.652 µM)	1.22 (≈ 1.99 µM)	1.94 (≈ 3.16 µM)	0.87 (≈ 1.42 µM)	0.87 (≈ 1.42 µM)	–	–	–	–	–	–	–
COc1nc2ccc(C)cc2cc1C(c1ccccc1)C(O)(CCCCCN(C)C)c1ccccc1 (single isomer, unassigned) [Compound 152]	7.7 (≈ 16 µM)	1.5 (≈ 3.11 µM)	38.3 (≈ 79.4 µM)	38.3 (≈ 79.4 µM)	38.3 (≈ 79.4 µM)	–	–	–	–	–	–	–
CNCCCCC(O)(c1ccc2ccccc2c1)C(c1ccccc1)c1cc2cc(Br)ccc2nc1OC (racemic) [Compound 74]	11.36 (≈ 19.9 µM)	0.9 (≈ 1.58 µM)	9.03 (≈ 15.9 µM)	10.13 (≈ 17.8 µM)	9.03 (≈ 15.9 µM)	–	–	–	–	–	–	–
COc1nc2ccc(Br)cc2cc1C(c1ccccc1)C(O)(CCCCCN(C)C)c1ccc2ccccc2c1 (stereo not drawn) [Compound 59]	0.8 (≈ 1.34 µM)	0.84 (≈ 1.41 µM)	–	–	–	–	1.89 (≈ 3.16 µM)	1.89 (≈ 3.16 µM)	2.12 (≈ 3.55 µM)	–	–	–
COc1ccc(C(O)(CCCCN2CCCCC2)C(c2ccc(C)cc2)c2cc3cc(Br)ccc3nc2OC)cc1 (single isomer, unassigned) [Compound 168]	2.19 (≈ 3.55 µM)	2.46 (≈ 3.98 µM)	1.95 (≈ 3.16 µM)	1.95 (≈ 3.16 µM)	1.95 (≈ 3.16 µM)	–	–	–	–	–	–	–
COc1nc2ccc(Br)cc2cc1C(c1ccccc1)C(O)(CCCCN(C)Cc1ccccc1)c1ccc2ccccc2c1 (racemic) [Compound 76]	–	2.34 (≈ 3.55 µM)	–	–	10.46 (≈ 15.9 µM)	–	–	–	–	–	–	–
COc1nc2ccc(Br)cc2cc1C(c1ccccc1)C(O)(CCCCN1CCNCC1)c1ccc2ccccc2c1 (stereo not drawn) [Compound 107]	–	0.39 (≈ 0.624 µM)	–	–	–	–	1.98 (≈ 3.17 µM)	1.98 (≈ 3.17 µM)	1.98 (≈ 3.17 µM)	1.98 (≈ 3.17 µM)	–	–
COc1nc2ccc(Br)cc2cc1C(c1ccccc1)C(O)(CCCCN1CCCCC1)CCC(C)C (single isomer, unassigned) [Compound 124]	1.79 (≈ 3.15 µM)	2.26 (≈ 3.98 µM)	9 (≈ 15.9 µM)	3.58 (≈ 6.31 µM)	9 (≈ 15.9 µM)	–	–	–	–	–	–	–
CCN(CC)CCCCC(O)(c1ccc2ccccc2c1)C(c1ccccc1)c1cc2cc(Br)ccc2nc1OC (racemic) [Compound 85]	1.93 (≈ 3.16 µM)	1.93 (≈ 3.16 µM)	–	–	–	–	–	–	–	–	12.2 (≈ 19.9 µM)	–
COc1nc2ccc(Br)cc2cc1C(c1ccccc1)C(O)(CCCCN1CCC(C)CC1)c1ccc2ccccc2c1 (racemic) [Compound 102]	10.11 (≈ 15.9 µM)	1.8 (≈ 2.82 µM)	10.11 (≈ 15.9 µM)	2.02 (≈ 3.17 µM)	2.02 (≈ 3.17 µM)	–	–	–	–	–	–	–
COc1nc2ccc(Br)cc2cc1C(c1ccccc1)C(O)(CCCCN1CCC(N(C)C)CC1)CCc1ccccc1 (single isomer, unassigned) [Compound 139]	4.56 (≈ 7.07 µM)	5.12 (≈ 7.94 µM)	–	–	–	–	–	–	–	–	12.86 (≈ 19.9 µM)	–
COc1nc2ccc(Br)cc2cc1C(c1ccccc1)C(O)(CCCCCN(C)C)c1ccccc1 (single isomer, unassigned) [Compound 154]	1.75 (≈ 3.2 µM)	1.75 (≈ 3.2 µM)	–	8.68 (≈ 15.9 µM)	8.68 (≈ 15.9 µM)	–	–	–	–	–	–	–
COc1nc2ccc(-c3ccco3)cc2cc1C(c1ccccc1)C(O)(CCCCN(C)C)c1ccc2ccccc2c1 (stereo not drawn) [Compound 39]	2.0 (≈ 3.5 µM)	3.6 (≈ 6.31 µM)	–	–	–	–	–	–	–	–	–	4.5 (≈ 7.88 µM)
COc1nc2ccccc2cc1C(c1ccc(-c2ccccc2)cc1)C(O)(CCCCN(C)C)c1ccc2ccccc2c1 (stereo not drawn) [Compound 57]	4.11 (≈ 7.08 µM)	2.31 (≈ 3.98 µM)	–	–	–	–	–	–	–	–	2.59 (≈ 4.46 µM)	–
COc1nc2ccc(Br)cc2cc1C(c1ccccc1)C(O)(CCCCN(C)C)CCCc1ccccc1 (single isomer, unassigned) [Compound 145]	5.76 (≈ 10 µM)	2.29 (≈ 3.98 µM)	9.12 (≈ 15.8 µM)	9.12 (≈ 15.8 µM)	5.13 (≈ 8.91 µM)	–	–	–	–	–	–	–
COc1nc2ccc(Br)cc2cc1C(c1ccccc1)C(O)(CCCCN1CCNCC1)c1ccc2ccccc2c1 (stereo not drawn) [Compound 106]	1.98 (≈ 3.17 µM)	1.98 (≈ 3.17 µM)	1.98 (≈ 3.17 µM)	1.98 (≈ 3.17 µM)	1.98 (≈ 3.17 µM)	–	–	–	–	–	–	–
CCN(CC)CCCCC(O)(CCc1ccccc1)C(c1ccccc1)c1cc2cc(Br)ccc2nc1OC (single isomer, unassigned) [Compound 132]	2.09 (≈ 3.54 µM)	2.09 (≈ 3.54 µM)	–	–	–	–	–	–	–	–	11.76 (≈ 19.9 µM)	–
CCN(CC)CCCCC(O)(CCc1cccc2ccccc12)C(c1ccccc1)c1cc2cc(Br)ccc2nc1OC (stereo not drawn) [Compound 73]	–	–	–	–	–	2.55 (≈ 3.99 µM)	–	–	–	2.02 (≈ 3.16 µM)	–	2.55 (≈ 3.99 µM)
COc1nc2ccc(-c3ccco3)cc2cc1C(c1ccccc1)C(O)(CCCCN(C)C)c1ccccc1 (racemic) [Compound 83]	1.65 (≈ 3.17 µM)	1.65 (≈ 3.17 µM)	–	–	–	–	–	–	–	–	5.21 (≈ 10 µM)	–
COc1nc2ccc(Br)cc2cc1C(c1ccc(Cl)cc1)C(O)(CCCCN1CCCCC1)c1ccccc1 (single isomer, unassigned) [Compound 170]	21.57 (≈ 35.5 µM)	9.64 (≈ 15.9 µM)	9.64 (≈ 15.9 µM)	9.64 (≈ 15.9 µM)	9.64 (≈ 15.9 µM)	–	–	–	–	–	–	–
COc1nc2ccc(Br)cc2cc1C(c1ccc(Cl)c(Cl)c1)C(O)(CCCCN1CCCCC1)c1ccccc1 (single isomer, unassigned) [Compound 173]	2.03 (≈ 3.16 µM)	0.91 (≈ 1.42 µM)	2.03 (≈ 3.16 µM)	2.03 (≈ 3.16 µM)	0.91 (≈ 1.42 µM)	–	–	–	–	–	–	–
COc1nc2c(C)c(Br)ccc2cc1C(c1ccccc1)C(O)(CCCCN(C)C)c1ccc2ccccc2c1 (racemic) [Compound 81]	9.47 (≈ 15.8 µM)	4.75 (≈ 7.95 µM)	1.89 (≈ 3.16 µM)	9.47 (≈ 15.8 µM)	1.89 (≈ 3.16 µM)	–	–	–	–	–	–	–
COc1nc2ccccc2cc1C(c1ccc(Br)cc1)C(O)(CCCCN(C)C)c1ccc2ccccc2c1 (stereo not drawn) [Compound 64]	1.85 (≈ 3.17 µM)	1.85 (≈ 3.17 µM)	–	–	–	–	1.85 (≈ 3.17 µM)	0.46 (≈ 0.788 µM)	1.85 (≈ 3.17 µM)	–	–	–
COc1nc2ccccc2cc1C(c1ccc(-c2ccccc2)cc1)C(O)(CCCCN(C)C)c1ccc2ccccc2c1 (stereo not drawn) [Compound 56]	1.84 (≈ 3.17 µM)	–	–	–	–	2.31 (≈ 3.98 µM)	–	–	–	–	5.81 (≈ 10 µM)	–
COc1nc2ccc(Br)cc2cc1C(c1ccccc1)C(O)(CCCCN1CCN(C)CC1)CCc1cccc2ccccc12 (single isomer, unassigned) [Compound 142]	2.65 (≈ 3.97 µM)	2.37 (≈ 3.55 µM)	–	–	–	–	–	–	–	–	2.37 (≈ 3.55 µM)	–
COc1nc2ccc(Br)cc2cc1C(c1ccccc1)C(O)(CCCCN(C)C(C)C)c1ccccc1 (single isomer, unassigned) [Compound 89]	11.2 (≈ 19.9 µM)	2.24 (≈ 3.99 µM)	11.2 (≈ 19.9 µM)	11.2 (≈ 19.9 µM)	8.9 (≈ 15.8 µM)	–	–	–	–	–	–	–
